Laboratory results taken from ChEMBL document CHEMBL2151005, “Discovery of 1H-pyrrolo[2,3-c]pyridine-7-carboxamides as novel, allosteric mGluR5 antagonists” (Bioorg Med Chem Lett, 2012).

Key:
physchem [1] = assay: physchem
physchem [2] = conditions: octanol/water

SMILES	pKa (physchem [1])	logP (physchem [2])
Cc1c[nH]c(NC(=O)c2nc(C)cc3cc[nH]c23)n1	7.6	3.1
Cc1cc2cc[nH]c2c(C(=O)Nc2ccn(C)n2)n1	4.1	2.9
Cc1cccc(NC(=O)c2nc(C)cc3c(-c4ccccn4)c[nH]c23)n1	4.5	4.7
Cc1csc(NC(=O)c2nc(C)cc3cc[nH]c23)n1	5.6	3.9
Cc1cccc(NC(=O)c2nc(C)cc3cc[nH]c23)n1	4.5	5.3
Cc1c[nH]c(NC(=O)c2nc(C)cc3c(-c4ccccn4)c[nH]c23)n1	6.9	3.3
Cc1cc2cc[nH]c2c(C(=O)Nc2ccccn2)n1	3.5	4.2
Cc1cc2c(-c3ccccn3)c[nH]c2c(C(=O)Nc2ccn(C)n2)n1	4.6	3.7
